How the values were obtained:
Assay type in all cases: in vivo
[1] = tested on: Pigweed, Palmer (palmer amaranth, palmer pigweed, Amaranthus palmeri); experiment: Test A1 preemergence, Pigweed, Palmer
In short: (§1)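 Seeds were first planted into a blend of loam soil and sand and given a preemergence directed soil spray. In parallel, pots of the same soil were sown for postemergence application once plants reached 2 to 10 cm and the one- to two-leaf stage. Both used surfactant-containing non-phytotoxic solvent formulations.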

[2] = tested on: corn (Zea mays); experiment: Test A1 postemergence, corn; conditions: Postemergence
In short: as §1

[3] = tested on: Foxtail, Giant (giant foxtail, Setaria faberi); experiment: Test A1 preemergence, Foxtail, Giant
In short: as §1

[4] = tested on: goosegrass (Eleusine indica); experiment: Test A1 preemergence, goosegrass
In short: as §1

[5] = tested on: blackgrass (Alopecurus myosuroides); experiment: Test A1 postemergence, blackgrass; conditions: Postemergence, 0 to 100 scale (0 no effect, 100 complete control)
In short: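 Pre: seeds in loam/sand blend, directed soil spray. Post: potted plants, same soil, 2–10 cm, 1–2 leaf stage. Chemicals in non-phytotoxic solvent + surfactant for both.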

[6] = tested on: ducksalad (Heteranthera limosa); experiment: Test B1 flooded paddy test, ducksalad; conditions: 250 g ai/ha, Flood, applied to paddy water, 2-leaf stage, visually evaluated after 10 to 14 days
Description: (§2) A dash (-) response means no test result.

[7] = tested on: barnyardgrass (Echinochloa crus-galli); experiment: Test B1 flooded paddy test, barnyardgrass; conditions: 250 g ai/ha, Flood, applied to paddy water, 2-leaf stage, visually evaluated after 10 to 14 days
Description: as §2

[8] = tested on: soybean (Glycine max); experiment: Test A1 preemergence, soybean
In short: as §1

[9] = tested on: Oat, Wild (wild oat, Avena fatua); experiment: Test A1 preemergence, Oat, Wild
In short: as §1

[10] = 31 g ai/ha, 0 to 100 scale (0 no effect, 100 complete control)
[11] = 125 g ai/ha, 0 to 100 scale, 0 no effect, 100 complete control
[12] = 31 g ai/ha, 0 to 100 scale (0 no effect, 100 complete control), 10 days

SMILES	Plant response rating, Pigweed, Palmer [1, 10]	Plant response rating, Pigweed, Palmer [1, 11]	Plant response rating, Corn [2, 12]	Plant response rating, Corn ([2]; 125 g ai/ha, 0 to 100 scale)	Plant response rating, Foxtail, Giant [3, 10]	Plant response rating, Foxtail, Giant [3, 11]	Plant response rating, Goosegrass [4, 10]	Plant response rating, Goosegrass [4, 11]	Plant response rating, Blackgrass ([5]; 31 g ai/ha, 10 days)	Plant response rating, Blackgrass ([5]; 125 g ai/ha)	Plant response rating, Ducksalad (0 to 100 scale, 0 is no effect, 100 is complete control) [6]	Plant response rating, Barnyardgrass (0 to 100 scale, 0 is no effect, 100 is complete control) [7]	Plant response rating, Soybean [8, 10]	Plant response rating, Soybean [8, 11]	Plant response rating, Oat, Wild [9, 10]	Plant response rating, Oat, Wild [9, 11]
CCCCOC1CC(c2cc(NS(=O)(=O)C(F)(F)F)c(C)cc2C)=NO1 (centres unmarked) [Compound 323]	90	100	0	0	50	90	50	90	0	50	0	0	0	0	20	30
CCOC(=O)N(c1cc(C(=O)N2CCOCC2)c(C)cc1C)S(=O)(=O)C(F)(F)F [Compound 363]	90	100	30	60	90	100	100	100	0	50	70	50	10	30	30	70
CCOC(=O)N(c1cc(C(=O)N2CCC(c3ccccc3)CC2)c(C)cc1C)S(=O)(=O)C(F)(F)F [Compound 365]	30	30	0	0	0	30	10	90	0	30	25	15	0	0	0	0
CCC1CC(c2cc(N(COC(=O)C(C)(C)C)S(=O)(=O)C(F)(F)F)c(C)cc2C)=NO1 (centres unmarked) [Compound 376]	0	40	0	0	0	30	50	100	0	50	70	95	0	0	0	10
CCOC1CC(c2cc(NS(=O)(=O)C(F)(F)F)c(C)cc2C)=NO1 (centres unmarked) [Compound 318]	80	100	30	60	30	90	80	100	0	50	80	95	0	30	0	10
Cc1cc(C)c(N(S(=O)(=O)C(F)(F)F)S(=O)(=O)C(F)(F)F)cc1C1=NOC2COCC12 (centres unmarked) [Compound 296]	10	80	0	0	30	100	40	90	0	0	20	30	20	30	0	10
Cc1cc(C)c(-n2nccc(C)c2=O)cc1NS(=O)(=O)C(F)(F)F [Compound 281]	0	40	0	0	0	100	10	90	0	0	0	0	0	80	50	0
Cc1c(NS(=O)(=O)C(F)(F)F)cc(C(=O)N2CCOCC2)c(C)c1Cl [Compound 290]	0	50	0	20	0	90	70	90	0	0	65	0	0	0	0	20
CCC1ON=C(c2cc(N(COC(=O)C(C)(C)C)S(=O)(=O)C(F)(F)F)c(C)cc2C)C1CC (centres unmarked) [Compound 344]	50	80	20	50	30	100	20	90	0	50	90	95	50	50	0	10
Cc1cc(C)c(N(COC(=O)N(C)C)S(=O)(=O)C(F)(F)F)cc1C1=NOC2CCCC12 (centres unmarked) [Compound 317]	0	0	0	0	0	0	0	0	0	0	30	0	0	0	0	0
Cc1c(NS(=O)(=O)C(F)(F)F)cc(C(=O)N2CC(C)OC(C)C2)c(C)c1C (centres unmarked) [Compound 328]	100	100	0	50	20	100	40	80	0	0	90	40	50	90	0	30
Cc1cc(F)c(NS(=O)(=O)C(F)(F)F)cc1C1=NOC2(CCCC2)C1 [Compound 303]	20	20	0	40	80	100	50	100	–	–	0	0	0	0	20	60
Cc1cc(Br)c(NS(=O)(=O)C(F)(F)F)cc1C1=NOC2(CCCC2)C1 [Compound 309]	40	40	0	30	60	90	50	100	–	–	60	0	0	0	20	60
COc1cc(C)c(C2=NOC3(CCCC3)C2)cc1NS(=O)(=O)C(F)(F)F [Compound 304]	0	20	0	20	0	80	30	90	–	–	0	0	0	0	50	0
